Results as given in patent US11034671B2, “Apoptosis signal-regulating kinase inhibitors and uses thereof” (SICHUAN HAISCO PHARMACEUTICAL CO., LTD., priority 2017, dated 2021).

Target: ASK1 (Homo sapiens (Human), UniProt Q99683)
Assay: ASK1 KINOMEscan assay (biochemical Kd), competition binding
Details: DNA-tagged ASK1 kinase, 11-point 3-fold dilution
Experimental: The binding of compounds to ASK1 were determined using DiscoverX's proprietary technology. […] The assay is performed by combining three components: DNA-tagged ASK1 kinase; immobilized ligand; and a test compound. The ability of the test compound to compete with the immobilized ligand is measured via quantitative PCR of the DNA tag. […] The liganded beads were blocked with excess biotin and washed with blocking buffer (SeaBlock (Pierce), 1% BSA, 0.05% Tween 20, 1 mM DTT) to remove unbound ligand and to reduce nonspecific binding. […] Kds were determined using an 11-point 3-fold compound dilution series with three DMSO control points. […] The compounds were then diluted directly into the assays such that the final concentration of DMSO was 0.9%. All reactions were performed in polypropylene 384-well plate. […] The kinase concentration in the eluates was measured by qPCR. Most Kds were determined using a compound top concentration=30,000 nM. […] Binding constants (Kds) were calculated with a standard dose-response curve using the Hill equation: Response=Background+{(Signal−Background)/[1+(Kd^Hill Slope/Dose^Hill Slope)]}, the Hill Slope was set to −1, and curves were fitted using a non-linear least square fit with the Levenberg-Marquardt algorithm.

ASK1, sequence (Q99683 whole entry): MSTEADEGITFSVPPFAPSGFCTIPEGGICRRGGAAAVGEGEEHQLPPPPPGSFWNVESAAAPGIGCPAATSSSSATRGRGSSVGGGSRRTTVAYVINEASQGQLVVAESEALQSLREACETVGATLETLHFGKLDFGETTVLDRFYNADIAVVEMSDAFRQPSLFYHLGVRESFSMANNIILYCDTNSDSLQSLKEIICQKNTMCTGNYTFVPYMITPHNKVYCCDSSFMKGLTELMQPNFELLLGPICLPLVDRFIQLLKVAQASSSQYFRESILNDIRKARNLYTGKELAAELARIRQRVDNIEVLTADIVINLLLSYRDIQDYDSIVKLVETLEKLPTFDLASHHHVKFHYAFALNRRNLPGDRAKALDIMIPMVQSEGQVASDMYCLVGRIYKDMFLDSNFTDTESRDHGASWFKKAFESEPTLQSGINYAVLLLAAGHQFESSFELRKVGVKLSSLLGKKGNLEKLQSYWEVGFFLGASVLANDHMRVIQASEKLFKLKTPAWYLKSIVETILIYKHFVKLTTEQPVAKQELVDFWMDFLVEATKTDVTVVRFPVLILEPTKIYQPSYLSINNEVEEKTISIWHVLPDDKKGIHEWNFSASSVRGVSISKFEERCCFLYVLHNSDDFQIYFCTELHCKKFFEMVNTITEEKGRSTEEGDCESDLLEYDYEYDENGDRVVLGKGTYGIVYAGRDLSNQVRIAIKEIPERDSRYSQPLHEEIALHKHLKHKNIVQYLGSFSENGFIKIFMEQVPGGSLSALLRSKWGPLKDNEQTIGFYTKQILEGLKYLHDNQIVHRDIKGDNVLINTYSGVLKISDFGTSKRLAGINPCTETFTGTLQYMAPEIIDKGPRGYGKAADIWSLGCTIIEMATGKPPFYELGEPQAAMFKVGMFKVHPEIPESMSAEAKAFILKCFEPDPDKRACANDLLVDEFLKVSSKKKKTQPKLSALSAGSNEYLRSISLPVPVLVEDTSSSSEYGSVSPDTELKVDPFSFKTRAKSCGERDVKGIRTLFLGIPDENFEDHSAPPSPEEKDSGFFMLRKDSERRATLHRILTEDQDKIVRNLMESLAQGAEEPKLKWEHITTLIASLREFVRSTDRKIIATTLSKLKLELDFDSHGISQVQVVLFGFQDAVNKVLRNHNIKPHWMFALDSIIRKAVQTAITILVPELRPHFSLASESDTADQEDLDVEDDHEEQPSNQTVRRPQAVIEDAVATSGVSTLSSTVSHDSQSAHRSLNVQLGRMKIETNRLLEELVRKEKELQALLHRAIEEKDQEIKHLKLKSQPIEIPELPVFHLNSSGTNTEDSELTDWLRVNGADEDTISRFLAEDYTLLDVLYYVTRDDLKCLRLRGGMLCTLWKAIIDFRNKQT

SMILES | Kd [µM]
COc1ccc2c(c1)C(=O)Nc1cccc(n1)-c1nncn1CC/C=C/CO2 [Example 1] | < 0.01
COc1ccc2c(c1)C(=O)Nc1cccc(n1)-c1nncn1CCCCCO2 [Example 2] | < 0.01
COc1ccc2c(c1)C(=O)Nc1cccc(n1)-c1nncn1CCC/C=C/CO2 [Example 3] | 0.01 to 0.1
COc1ccc2c(c1)C(=O)Nc1cccc(n1)-c1nncn1CC/C=C/C2 [Example 4] | > 1
COc1ccc2c(c1)C(=O)Nc1cccc(n1)-c1nncn1CCCCC2 [Example 5] | 0.1 to 1
COc1ccc2c(c1)C(=O)Nc1cccc(n1)-c1nncn1CC=CCO2 [Example 6] | 0.01 to 0.1
COc1ccc2c(c1)C(=O)Nc1cccc(n1)-c1nncn1CCCCO2 [Example 7] | < 0.01
O=C1Nc2cccc(n2)-c2nncn2CCCCCc2ccc(-c3ccc(C4CC4)nc3)cc21 [Example 8] | 0.01 to 0.1
O=C1Nc2cccc(n2)-c2nncn2CCCCCCOc2ccc(-c3ccc(C4CC4)nc3)cc21 [Example 9] | 0.1 to 1
O=C1Nc2cccc(n2)-c2nncn2CC=CCCOc2ccc(Br)cc21 [Example 10] | < 0.01
COc1ccc2c(c1)C(=O)Nc1cccc(n1)-c1nncn1CCCCCCO2 [Example 11] | < 0.01
O=C1Nc2cccc(n2)-c2nncn2CC=CCCCOc2ccc(Br)cc21 [Example 12] | 0.01 to 0.1
O=C1Nc2cccc(n2)-c2nncn2CC=CCCCOc2ccc(-c3ccc(C4CC4)nc3)cc21 [Example 13] | > 1
O=C1Nc2cccc(n2)-c2nncn2CC=CCCOc2ccc(-c3ccc(C4CC4)nc3)cc21 [Example 14] | 0.01 to 0.1
O=C1Nc2cccc(n2)-c2nncn2C/C=C\COc2ccc(Br)cc21 [Example 16] | 0.01 to 0.1
O=C1Nc2cccc(n2)-c2nncn2C/C=C/CCOc2ccc(OCc3ccccc3)cc21 [Example 17] | 0.01 to 0.1
O=C1Nc2cccc(n2)-c2nncn2C/C=C/COc2ccc(OCc3ccccc3)cc21 [Example 18] | < 0.01
O=C1Nc2cccc(n2)-c2nncn2CCCCOc2ccc(OC3CCOC3)cc21 (stereo not shown) [Example 20] | 0.01 to 0.1

SMILES | Kd [µM]
O=C1Nc2cccc(c2)-c2nncn2CCCOc2ccc(-c3ccc(C4CC4)nc3)cc21 [Example 21] | > 1
O=C1Nc2cccc(n2)-c2nncn2CCCCOc2cc(F)c(F)cc21 [Example 25] | 0.1 to 1
O=C1Nc2cccc(n2)-c2nncn2CCCCOc2cc(F)c(Br)cc21 [Example 28] | 0.1 to 1
COc1cc2c(cc1OC)C(=O)Nc1cccc(n1)-c1nncn1CCCCO2 [Example 29] | 0.1 to 1
N#Cc1ccc2c(c1)C(=O)Nc1cccc(n1)-c1nncn1CCCCO2 [Example 31] | < 0.01
O=C1Nc2cccc(n2)-c2nncn2CCCCOc2ccc(C(F)(F)F)cc21 [Example 32] | 0.01 to 0.1
O=C1Nc2cccc(n2)-c2nncn2CCCOc2ccc(Br)cc21 [Example 33] | 0.1 to 1
O=C1Nc2cccc(n2)-c2nncn2CCCCOc2ccc(Cl)cc21 [Example 41] | 0.01 to 0.1
N#Cc1cc2c(cc1F)OCCCCn1cnnc1-c1cccc(n1)NC2=O [Example 44] | 0.01 to 0.1
CC(C)n1nccc1-c1ccc2c(c1)C(=O)Nc1cccc(n1)-c1nncn1CCCCO2 [Example 45] | 0.1 to 1
Cc1ccc(-c2cc3c(cc2C)OCCCCn2cnnc2-c2cccc(n2)NC3=O)cn1 [Example 51] | < 0.01
CC(C)(O)c1ccc2c(c1)OCCCCn1cnnc1-c1cccc(n1)NC2=O [Example 53] | < 0.01
Cn1ncc2cc(-c3ccc4c(c3)C(=O)Nc3cccc(n3)-c3nncn3CCCCO4)ccc21 [Example 55] | < 0.01
O=C1Nc2cccc(n2)-c2nncn2CCCOc2ccc(-c3ccccc3)cc21 [Example 57] | 0.01 to 0.1
O=C1Nc2cccc(n2)-c2nncn2CCCCOc2ccc(-c3ccc4nccn4c3)cc21 [Example 58] | < 0.01
O=C1Nc2cccc(n2)-c2nncn2CCCCOc2ccc(-c3cnc(F)c(F)c3)cc21 [Example 98] | < 0.01
O=C1Nc2cccc(n2)-c2nncn2CCCCOc2ccc(-c3cnc(F)c(Cl)c3)cc21 [Example 99] | < 0.01

Now from value to molecule:

Kd [µM] | SMILES
< 0.01 | Cc1ccc(-c2ccc3c(c2)C(=O)Nc2cccc(n2)-c2nncn2C2C[C@H]2CCO3)cn1 (stereo in doubt) [Example 97]
0.1 to 1 | COc1cc2c(cc1Br)OCCCCn1cnnc1-c1cccc(n1)NC2=O [Example 59]
< 0.01 | Cc1ccc(-c2ccc3c(c2)C(=O)Nc2cccc(n2)-c2nncn2CCCO3)cn1 [Example 60]
0.1 to 1 | Cc1ccc(-c2cc3c(cc2F)OCCCCn2cnnc2-c2cccc(n2)NC3=O)cn1 [Example 64]
< 0.01 | Cc1cc2c(cc1-c1ccc(C3CC3)nc1)C(=O)Nc1cccc(n1)-c1nncn1CCCCO2 [Example 65]
< 0.01 | O=C1Nc2cccc(n2)-c2nncn2CCCCOc2cc(F)c(-c3ccc(C4CC4)nc3)cc21 [Example 68]
< 0.01 | Cc1ccc(-c2ccc3c(c2)C(=O)Nc2cccc(n2)-c2nncn2[C@H]2C[C@@H](CO3)C2)cn1 [Example 69]
< 0.01 | Cc1ccc(-c2ccc3c(c2)C(=O)Nc2cccc(n2)-c2nncn2[C@H]2CC[C@H](CC2)O3)cn1 [Example 71]
> 1 | Cc1ccc(-c2ccc3c(c2)C(=O)Nc2cccc(n2)-c2nncn2CCO3)cn1 [Example 72]
< 0.01 | Cc1ncc(-c2ccc3c(c2)C(=O)Nc2cccc(n2)-c2nncn2CCCCO3)cn1 [Example 73]
0.01 to 0.1 | Cc1ncc(-c2ccc3c(c2)C(=O)Nc2cccc(n2)-c2nncn2CCCCO3)cc1Cl [Example 75]
< 0.01 | Cc1ccc(-c2ccc3c(c2)C(=O)Nc2cccc(n2)-c2nncn2C[C@H]2CC2CO3)cn1 (stereo partly shown) [Example 77]
< 0.01 | CC(F)(F)c1ccc(-c2ccc3c(c2)C(=O)Nc2cccc(n2)-c2nncn2CCCCO3)cn1 [Example 78]
0.01 to 0.1 | O=C1Nc2cccc(n2)-c2nncn2CCCOc2ccc(-c3ccc(C(F)F)nc3)cc21 [Example 79]
< 0.01 | Cc1ccc(-c2ccc3c(c2)C(=O)Nc2cccc(n2)-c2nncn2CC(C)CCO3)cn1 (stereo not shown) [Example 80]
< 0.01 | Cc1ccc(-c2ccc3c(c2)C(=O)Nc2cccc(n2)-c2nncn2C[C@@H]2CC2CO3)cn1 (stereo partly shown) [Example 81]
< 0.01 | O=C1Nc2cccc(n2)-c2nncn2CCCOCc2ccc(-c3ccc(C(F)F)nc3)cc21 [Example 82]
> 1 | CC1CCOc2ccc(-c3ccc(C(F)F)nc3)cc2C(=O)Nc2cccc(n2)-c2nncn21 (stereo not shown) [Example 83]
< 0.01 | O=C1Nc2cccc(n2)-c2nncn2[C@H]2CC[C@H](CC2)Oc2ccc(-c3ccc(C(F)F)nc3)cc21 [Example 84]

Kd [µM] | SMILES
< 0.01 | O=C1Nc2cccc(n2)-c2nncn2[C@H]2CCC(C2)Oc2ccc(-c3ccc(C(F)F)nc3)cc21 [Example 86]
< 0.01 | O=C1Nc2cccc(n2)-c2nncn2CCCCOc2ccc(-c3ccc(CF)nc3)cc21 [Example 87]
< 0.01 | Cc1ccc(-c2ccc3c(c2)C(=O)Nc2cccc(n2)-c2nncn2[C@@H](C)CCCO3)cn1 [Example 88]
< 0.01 | Cc1ccc(-c2ccc3c(c2)C(=O)Nc2cccc(n2)-c2nncn2[C@H](C)CCCO3)cn1 [Example 89]
> 1 | O=C1Nc2cccc(n2)-c2nncn2CCCOc2ccc(-c3ccc(C(F)F)nc3)cc21 [Example 90]
> 1 | Cc1ccc(-c2ccc3c(c2)C(=O)Nc2cccc(n2)-c2nncn2CCCS3)cn1 [Example 91]
0.1 to 1 | O=C1Nc2cccc(n2)-c2nncn2C2CC(C2)Oc2ccc(-c3ccc(C(F)F)nc3)cc21 [Example 93]
> 1 | COc1ccc2c(c1)C(=O)Nc1cccc(n1)-c1nncn1CC=CC2 [Example 94]
< 0.01 | O=C1Nc2cccc(n2)-c2nncn2CCCOCc2ccc(-c3ccc(C4CC4)nc3)cc21 [Example 95]
0.01 to 0.1 | N#Cc1ccc2c(c1)OCCCCn1cnnc1-c1cccc(n1)NC2=O [Example 96]
< 0.01 | O=C1Nc2cccc(n2)-c2nncn2CCCOCc2ccc(-c3ccc(CF)nc3)cc21 [Example 100]
0.01 to 0.1 | O=C1Nc2cccc(n2)-c2nncn2CCCOCc2ccc(-c3ccc(C(F)(F)F)nc3)cc21 [Example 101]
< 0.01 | CCc1ccc(-c2ccc3c(c2)C(=O)Nc2cccc(n2)-c2nncn2CCCOC3)cn1 [Example 102]
< 0.01 | O=C1Nc2cccc(n2)-c2nncn2CCCOCc2ccc(-n3cnc(C4CC4)c3)cc21 [Example 103]
< 0.01 | Cc1ccc(-c2ccc3c(c2)C(=O)Nc2cccc(n2)-c2nncn2CC[C@@H](C)CO3)cn1 [Example 104]
0.01 to 0.1 | O=C1Nc2cccc(n2)-c2nncn2CCCOCc2ccc(-c3cnc(F)c(Cl)c3)cc21 [Example 106]
0.01 to 0.1 | O=C1Nc2cccc(n2)-c2nncn2CCCOCc2ccc(-c3cnc(F)c(F)c3)cc21 [Example 107]
0.1 to 1 | Cc1c(F)c(F)cc2c1C(=O)Nc1cccc(n1)-c1nncn1CCCCO2 [compound 26]
< 0.01 | CCc1ccc(-c2ccc3c(c2)C(=O)Nc2cccc(n2)-c2nncn2CCCS3)cn1 [compound 92]
